Earlier results on two substances are cited in US20090018020A1, “USE OF COMPOUNDS COMPRISING A POLYSACCHARIDE STRUCTURE AS BIOFERTILISER AND PHYTOSANITARY PRODUCTS” (CENTRE NATIONAL DE LA RECHERCHE SCIENTIFIQUE, priority 2002, published 2009).

For this data set the following is noted: literature (Mc Dougall and Fry 1989, 1990).

Consider XXLG, for which the “auxinic or antiauxinic effect” value is listed as “auxinic effect”. In the case of XLLG, the “auxinic or antiauxinic effect” value was “auxinic effect”.
